Source: patent publication US11629171B2, “Beta-hairpin peptidomimetics” (POLYPHOR AG, priority 2017, dated 2023)
Converted amounts (≈) assume the structure as drawn. Where a SMILES comes first, the peptide text is derived from it. Bridges are numbered along the chain shown (N, C = ends). Roman numbers before positions name the chains, in order. [ ]: non-standard residue; d: D form. The star is where a group is joined. Thr(ol) = C[C@@H](O)[C@H](N)CO; Tle = CC(C)(C)[C@H](N)C(=O)O; Hiv = CC(C)[C@H](O)C(=O)O; dDab = NCC[C@@H](N)C(=O)O; Orn = NCCC[C@H](N)C(=O)O; Dab = NCC[C@H](N)C(=O)O; Abu = CC[C@H](N)C(=O)O; Dap = NC[C@H](N)C(=O)O; Propionyl = CCC(=O)*

Key:
Type in all cases: cell-based
[1] = tested on: human red blood cells (hRBC); experiment: Hemolysis; conditions: red cells of human, 1 h, 200
Outline: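 Hemoglobin release from PBS-washed hRBC at 20% (v/v), incubated 1 h at 37° C with peptides at 200 μg/mL, is measured at 540 nm. Values are blank corrected and given as a fraction of Triton X-100 lysis × 100%.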

[2] = tested on: Enterobacter cloacae 848840; conditions: 848840
Outline: (§1)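 Visible-growth endpoint after 18-20 h at 35° C defines the MIC (μg/mL). Setup: CLSI broth microdilution, MH-II cation-adjusted broth with P-80 at 0.002% final, inoculum of approximately 10^6 CFU/mL, two-fold serial peptide dilutions.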

[3] = tested on: Acinetobacter baumannii 872842; conditions: 872842
Outline: as §1

[4] = tested on: Klebsiella pneumoniae 968733; conditions: 968733
Outline: as §1

[5] = tested on: Escherichia coli 926415; conditions: 926415
Outline: as §1

[6] = tested on: Klebsiella pneumoniae SSI #3010; conditions: SSI #3010
Outline: as §1

[7] = tested on: Pseudomonas aeruginosa ATCC 27853; conditions: ATCC 27853
Outline: as §1

[8] = tested on: Acinetobacter baumannii DSM 30008; conditions: DSM 30008
Outline: as §1

[9] = tested on: Escherichia coli ATCC 25922; conditions: ATCC 25922
Outline: as §1

CC(C)C[C@@H]1NC(=O)[C@@H](CC(C)C)NC(=O)[C@H](CCN)NC(=O)[C@@H](NC(=O)[C@H](CCN)NC(=O)[C@@H](NC(=O)[C@H](CCN)NC(=O)CC[C@@H]2NC(=O)[C@H](CCN)NC(=O)[C@H](Cc3ccc(O)cc3)NC(=O)[C@@H](NC(=O)[C@@H](O)C(C)C)CSSC[C@@H](C(=O)N[C@H](CO)[C@@H](C)O)NC(=O)[C@H](C(C)(C)C)NC(=O)[C@H](CO)NC(=O)[C@H](Cc3c[nH]c4ccccc34)NC(=O)[C@H](CO)NC(=O)[C@@H](CCN)NC2=O)[C@@H](C)O)CCNC(=O)[C@H]([C@@H](C)O)NC(=O)[C@H](CCN)NC(=O)[C@H](CCN)NC1=O [Ex. 80] (I: H-[Hiv]CY[Dab]E[dDab]SWS[Tle]C[Thr(ol)] / II: [Dab]T[Dab][Dab][Dab][dL]L[Dab][Dab]T; disulfide I:2-I:11; amide I:5-II:N; lactam II:4-II:C)
Hemolysis at 200 μg/mL [1]: <1% | MIC [2]: 0.125 µg/mL (≈ 0.0524 µM) | MIC [3]: 0.0625 µg/mL (≈ 0.0262 µM) | MIC [4]: 0.125 µg/mL (≈ 0.0524 µM) | MIC [5]: 0.0625 µg/mL (≈ 0.0262 µM) | MIC [6]: 0.125 µg/mL (≈ 0.0524 µM) | MIC [7]: 0.125 µg/mL (≈ 0.0524 µM) | MIC [8]: 0.125 µg/mL (≈ 0.0524 µM) | MIC [9]: 0.03125 µg/mL (≈ 0.0131 µM)

CC[C@@H]1NC(=O)[C@@H](CC(C)C)NC(=O)[C@H](CCN)NC(=O)[C@@H](NC(=O)[C@H](CN)NC(=O)[C@@H](NC(=O)[C@H](CCN)NC(=O)CC[C@@H]2NC(=O)[C@H](CCN)NC(=O)[C@H](Cc3ccc(O)cc3)NC(=O)[C@@H](NC(=O)[C@@H](NC(C)=O)C(C)C)CSSC[C@@H](C(=O)N[C@@H](CO)C(N)=O)NC(=O)[C@H](C(C)(C)C)NC(=O)[C@H](CO)NC(=O)[C@H](Cc3c[nH]c4ccccc34)NC(=O)[C@H](CO)NC(=O)[C@@H](CCN)NC2=O)[C@@H](C)O)CCNC(=O)[C@H]([C@@H](C)O)NC(=O)[C@H](CCN)NC(=O)[C@H](CCN)NC1=O [Ex. 136] (I: Ac-VCY[Dab]E[dDab]SWS[Tle]CS-NH2 / II: [Dab]T[Dap][Dab][Dab][dL][Abu][Dab][Dab]T; disulfide I:2-I:11; amide I:5-II:N; lactam II:4-II:C)
Hemolysis at 200 μg/mL [1]: 3% | MIC [2]: 0.0625 µg/mL (≈ 0.0262 µM) | MIC [3]: 0.03125 µg/mL (≈ 0.0131 µM) | MIC [4]: 0.0625 µg/mL (≈ 0.0262 µM) | MIC [5]: 0.0625 µg/mL (≈ 0.0262 µM) | MIC [6]: 0.0625 µg/mL (≈ 0.0262 µM) | MIC [7]: 0.25 µg/mL (≈ 0.105 µM) | MIC [8]: 0.03125 µg/mL (≈ 0.0131 µM) | MIC [9]: 0.03125 µg/mL (≈ 0.0131 µM)

CC(=O)N[C@H](C(=O)N[C@H]1CCCNC(=O)[C@@H]([C@H](C)O)NC(=O)[C@H](C(C)(C)C)NC(=O)[C@H](CO)NC(=O)[C@H](Cc2c[nH]c3ccccc23)NC(=O)[C@H](CCN)NC(=O)[C@@H](CCN)NC(=O)[C@H](CCC(=O)N[C@@H](CCN)C(=O)N[C@H](C(=O)N[C@@H](CN)C(=O)N[C@H]2CCNC(=O)[C@H]([C@@H](C)O)NC(=O)[C@H](CCN)NC(=O)[C@H](CCN)NC(=O)[C@H](CC(C)C)NC(=O)[C@@H](CC(C)C)NC(=O)[C@H](CCN)NC2=O)[C@@H](C)O)NC(=O)[C@H](CO)NC(=O)[C@H](Cc2ccc(O)cc2)NC1=O)C(C)C [Ex. 25] (I: Ac-V[Orn]YSE[dDab][Dab]WS[Tle][dT] / II: [Dab]T[Dap][Dab][Dab][dL]L[Dab][Dab]T; lactam I:2-I:C, II:4-II:C; amide I:5-II:N)
Hemolysis at 200 μg/mL [1]: <1% | MIC [2]: 0.125 µg/mL (≈ 0.0539 µM) | MIC [3]: 0.25 µg/mL (≈ 0.108 µM) | MIC [4]: 0.25 µg/mL (≈ 0.108 µM) | MIC [5]: 0.25 µg/mL (≈ 0.108 µM) | MIC [6]: 0.125 µg/mL (≈ 0.0539 µM) | MIC [7]: 0.25 µg/mL (≈ 0.108 µM) | MIC [8]: 0.0625 µg/mL (≈ 0.0269 µM) | MIC [9]: 0.0625 µg/mL (≈ 0.0269 µM)

CC(=O)N[C@@H](CCN)C(=O)N[C@H](C(=O)N[C@H]1CSSC[C@@H](C(=O)N[C@@H](CO)C(=O)N[C@@H](CCC(=O)O)C(N)=O)NC(=O)[C@H](C(C)(C)C)NC(=O)[C@H](CO)NC(=O)[C@H](Cc2c[nH]c3ccccc23)NC(=O)[C@H](CCN)NC(=O)[C@@H](CCN)NC(=O)[C@H](CCC(=O)N[C@@H](CCN)C(=O)N[C@H](C(=O)N[C@@H](CN)C(=O)N[C@H]2CCNC(=O)[C@H]([C@@H](C)O)NC(=O)[C@H](CCN)NC(=O)[C@H](CCN)NC(=O)[C@H](CC(C)C)NC(=O)[C@@H](CC(C)C)NC(=O)[C@H](CCN)NC2=O)[C@@H](C)O)NC(=O)[C@H](CO)NC(=O)[C@H](Cc2ccc(O)cc2)NC1=O)C(C)C [Ex. 243] (I: Ac-[Dab]VCYSE[dDab][Dab]WS[Tle]CSE-NH2 / II: [Dab]T[Dap][Dab][Dab][dL]L[Dab][Dab]T; disulfide I:3-I:12; amide I:6-II:N; lactam II:4-II:C)
Hemolysis at 200 μg/mL [1]: <1% | MIC [2]: 0.25 µg/mL (≈ 0.0946 µM) | MIC [3]: 0.0625 µg/mL (≈ 0.0237 µM) | MIC [4]: 0.125 µg/mL (≈ 0.0473 µM) | MIC [5]: 0.125 µg/mL (≈ 0.0473 µM) | MIC [6]: 0.0625 µg/mL (≈ 0.0237 µM) | MIC [7]: 0.25 µg/mL (≈ 0.0946 µM) | MIC [8]: 0.0625 µg/mL (≈ 0.0237 µM) | MIC [9]: 0.0625 µg/mL (≈ 0.0237 µM)

CC[C@H](C)[C@@H]1NC(=O)[C@H](CO)NC(=O)[C@H](Cc2c[nH]c3ccccc23)NC(=O)[C@H](CCN)NC(=O)[C@@H](CCN)NC(=O)[C@H](CCC(=O)N[C@@H](CCN)C(=O)N[C@H](C(=O)N[C@@H](CN)C(=O)N[C@H]2CCNC(=O)[C@H]([C@@H](C)O)NC(=O)[C@H](CCN)NC(=O)[C@H](CCN)NC(=O)[C@H](CC(C)C)NC(=O)[C@@H](CC(C)C)NC(=O)[C@H](CCN)NC2=O)[C@@H](C)O)NC(=O)[C@H](CO)NC(=O)[C@H](Cc2ccc(O)cc2)NC(=O)[C@@H](NC(=O)[C@@H](NC(C)=O)C(C)C)CSSC[C@@H](C(=O)N[C@@H](CO)C(N)=O)NC1=O [Ex. 253] (I: Ac-VCYSE[dDab][Dab]WSICS-NH2 / II: [Dab]T[Dap][Dab][Dab][dL]L[Dab][Dab]T; disulfide I:2-I:11; amide I:5-II:N; lactam II:4-II:C)
Hemolysis at 200 μg/mL [1]: 2% | MIC [2]: 0.125 µg/mL (≈ 0.0518 µM) | MIC [3]: 0.03125 µg/mL (≈ 0.013 µM) | MIC [4]: 0.0625 µg/mL (≈ 0.0259 µM) | MIC [5]: 0.0625 µg/mL (≈ 0.0259 µM) | MIC [6]: 0.0625 µg/mL (≈ 0.0259 µM) | MIC [7]: 0.0625 µg/mL (≈ 0.0259 µM) | MIC [8]: 0.03125 µg/mL (≈ 0.013 µM) | MIC [9]: 0.03125 µg/mL (≈ 0.013 µM)

CC(=O)N[C@H](C(=O)N[C@H]1CSSC[C@@H](C(=O)N[C@@H](CO)C(N)=O)NC(=O)[C@H](C(C)(C)C)NC(=O)[C@H](CO)NC(=O)[C@H](Cc2c[nH]c3ccccc23)NC(=O)[C@H](CO)NC(=O)[C@@H](CCN)NC(=O)[C@H](CCC(=O)N[C@@H](CCN)C(=O)N[C@H](C(=O)N[C@@H](CN)C(=O)N[C@H]2CCNC(=O)[C@H]([C@@H](C)O)NC(=O)[C@H](CCN)NC(=O)[C@H](CCN)NC(=O)[C@H](CC(C)C)NC(=O)[C@@H](CC(C)C)NC(=O)[C@H](CCN)NC2=O)[C@@H](C)O)NC(=O)[C@H](CN)NC(=O)[C@H](Cc2ccc(O)cc2)NC1=O)C(C)C [Ex. 117] (I: Ac-VCY[Dap]E[dDab]SWS[Tle]CS-NH2 / II: [Dab]T[Dap][Dab][Dab][dL]L[Dab][Dab]T; disulfide I:2-I:11; amide I:5-II:N; lactam II:4-II:C)
Hemolysis at 200 μg/mL [1]: 2% | MIC [2]: 0.0625 µg/mL (≈ 0.0261 µM) | MIC [3]: 0.01562 µg/mL (≈ 0.00651 µM) | MIC [4]: 0.0625 µg/mL (≈ 0.0261 µM) | MIC [5]: 0.0625 µg/mL (≈ 0.0261 µM) | MIC [6]: 0.0625 µg/mL (≈ 0.0261 µM) | MIC [7]: 0.125 µg/mL (≈ 0.0521 µM) | MIC [8]: 0.01562 µg/mL (≈ 0.00651 µM) | MIC [9]: 0.0625 µg/mL (≈ 0.0261 µM)

CCC(=O)N[C@H](C(=O)N[C@H]1CSSC[C@@H](C(=O)N[C@@H](CO)C(N)=O)NC(=O)[C@H](C(C)(C)C)NC(=O)[C@H](CO)NC(=O)[C@H](Cc2c[nH]c3ccccc23)NC(=O)[C@H](CO)NC(=O)[C@@H](CCN)NC(=O)[C@H](CCC(=O)N[C@@H](CCN)C(=O)N[C@H](C(=O)N[C@@H](CN)C(=O)N[C@H]2CCNC(=O)[C@H]([C@@H](C)O)NC(=O)[C@H](CCN)NC(=O)[C@H](CCN)NC(=O)[C@H](CC(C)C)NC(=O)[C@@H](CC(C)C)NC(=O)[C@H](CCN)NC2=O)[C@@H](C)O)NC(=O)[C@H](CCN)NC(=O)[C@H](Cc2ccc(O)cc2)NC1=O)C(C)C [Ex. 144] (I: Propionyl-VCY[Dab]E[dDab]SWS[Tle]CS-NH2 / II: [Dab]T[Dap][Dab][Dab][dL]L[Dab][Dab]T; disulfide I:2-I:11; amide I:5-II:N; lactam II:4-II:C)
Hemolysis at 200 μg/mL [1]: <1% | MIC [2]: 0.125 µg/mL (≈ 0.0515 µM) | MIC [3]: 0.0625 µg/mL (≈ 0.0258 µM) | MIC [4]: 0.0625 µg/mL (≈ 0.0258 µM) | MIC [5]: 0.0625 µg/mL (≈ 0.0258 µM) | MIC [6]: 0.0625 µg/mL (≈ 0.0258 µM) | MIC [7]: 0.125 µg/mL (≈ 0.0515 µM) | MIC [8]: 0.0625 µg/mL (≈ 0.0258 µM) | MIC [9]: 0.03125 µg/mL (≈ 0.0129 µM)
